Measurements as given in patent US10710986B2, “PD-1/PD-L1 inhibitors” (Gilead Sciences, Inc., priority 2018, dated 2020).

Molecular target: PD-1/PD-L1 (Homo sapiens (Human), UniProt Q9NZQ7)
Assay: PD-1/PD-L1 biochemical protein-protein interaction assay (ALPHA)
Details: 0.3 nM His tagged PD-L1, 2.5 nM biotinylated Fc-PD-1, 60 minutes at 25° C., read-out: IC50 PD-L1-PD1

Sequence of PD-1/PD-L1 (Q9NZQ7 19-238): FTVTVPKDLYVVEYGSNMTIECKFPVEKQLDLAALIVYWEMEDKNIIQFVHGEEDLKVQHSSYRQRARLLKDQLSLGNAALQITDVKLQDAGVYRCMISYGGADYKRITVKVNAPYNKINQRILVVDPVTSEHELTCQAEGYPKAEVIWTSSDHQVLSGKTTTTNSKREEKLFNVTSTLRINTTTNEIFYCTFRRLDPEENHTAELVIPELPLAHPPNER

Row | SMILES | IC50 [pM]
1 | COc1nc(-c2cccc(-c3cccc(-c4cnc(CN5CC[C@@H]6CC[C@@H](O)[C@@H]65)c(OC)n4)c3Cl)c2Cl)cnc1CNC[C@@H]1CCC(=O)N1 [compound 216] | 210
2 | COc1nc(-c2cccc(-c3cccc(-c4cnc(CNC[C@@H]5C[C@H]5c5cccnc5)c(OC)n4)c3Cl)c2Cl)cnc1CNC[C@@H]1CCC(=O)N1 [compound 219] | 190
3 | COc1nc(-c2cccc(-c3cccc(-c4cnc(CNC[C@@H]5CCC(=O)N5)c(OC)n4)c3Cl)c2Cl)cnc1CNCC1CC1CC#N (stereo partly shown) [compound 220] | 360
4 | COC[C@H]1C[C@@H](NCc2ncc(-c3cccc(-c4cccc(-c5cnc(CNC[C@@H]6CCC(=O)N6)c(OC)n5)c4Cl)c3Cl)nc2OC)C1 [compound 221] | 227
5 | COc1nc(-c2cccc(-c3cccc(-c4cnc(CNC5CCC([S+](C)[O-])C5)c(OC)n4)c3Cl)c2Cl)cnc1CNC[C@@H]1CCC(=O)N1 (stereo partly shown) [compound 222] | 291
6 | COc1nc(-c2cccc(-c3cccc(-c4cnc(CN[C@@H]5CCOC[C@H]5C)c(OC)n4)c3Cl)c2Cl)cnc1CNC[C@@H]1CCC(=O)N1 [compound 223] | 584
7 | COc1nc(-c2cccc(-c3cccc(-c4cnc(CN5C[C@@H](OC)C[C@H]5CO)c(OC)n4)c3Cl)c2Cl)cnc1CNC[C@@H]1CCC(=O)N1 [compound 224] | 393
8 | COCCC1CN(Cc2ncc(-c3cccc(-c4cccc(-c5cnc(CNC[C@@H]6CCC(=O)N6)c(OC)n5)c4Cl)c3Cl)nc2OC)C1 [compound 225] | 288
9 | CC[C@@H]1OCC[C@H]1NCc1ncc(-c2cccc(-c3cccc(-c4cnc(CNC[C@@H]5CCC(=O)N5)c(OC)n4)c3Cl)c2Cl)nc1OC [compound 226] | 474
10 | COc1nc(-c2cccc(-c3cccc(-c4cnc(CNC[C@H]5C[C@@H](OC)C5)c(OC)n4)c3Cl)c2Cl)cnc1CNC[C@@H]1CCC(=O)N1 [compound 228] | 168
11 | COc1nc(-c2cccc(-c3cccc(-c4cnc(CN5CC[C@@H](C)[C@@H](O)C5)c(OC)n4)c3Cl)c2Cl)cnc1CNC[C@@H]1CCC(=O)N1 [compound 229] | 229
12 | COc1nc(-c2cccc(-c3cccc(-c4cnc(CN5C[C@@H]6CCC[C@]6(CO)C5)c(OC)n4)c3Cl)c2Cl)cnc1CNC[C@@H]1CCC(=O)N1 [compound 230] | 331
13 | COc1nc(-c2cccc(-c3cccc(-c4cnc(CN5CCC6(CCOC6=O)C5)c(OC)n4)c3Cl)c2Cl)cnc1CNC[C@@H]1CCC(=O)N1 (stereo partly shown) [compound 232] | 312
14 | CCO[C@H]1C[C@H](NCc2ncc(-c3cccc(-c4cccc(-c5cnc(CNC[C@@H]6CCC(=O)N6)c(OC)n5)c4Cl)c3Cl)nc2OC)C1 [compound 233] | 451
15 | COCC(NCc1ncc(-c2cccc(-c3cccc(-c4cnc(CNC[C@@H]5CCC(=O)N5)c(OC)n4)c3Cl)c2Cl)nc1OC)C1CC1 (stereo partly shown) [compound 238] | 297
16 | COc1nc(-c2cccc(-c3cccc(-c4cnc(CN5CC(F)(CO)C5)c(OC)n4)c3Cl)c2Cl)cnc1CN1CC(F)(CO)C1 [compound 239] | 300
17 | COc1nc(-c2cccc(-c3cccc(-c4cnc(CN[C@H]5C[C@@](C)(O)C5)c(OC)n4)c3Cl)c2Cl)cnc1CN[C@H]1C[C@@](C)(O)C1 [compound 241] | 270

Row | SMILES | IC50 [pM]
18 | COc1nc(-c2cccc(-c3cccc(-c4cnc(CNC[C@@H]5CC(C)(C)C(=O)N5)c(OC)n4)c3Cl)c2Cl)cnc1CNC[C@@H]1CCC(=O)N1 [compound 245] | 150
19 | COc1nc(-c2cccc(-c3cccc(-c4cnc(CNC[C@@H]5COC(=O)N5)c(OC)n4)c3Cl)c2Cl)cnc1CNC[C@@H]1CCC(=O)N1 [compound 246] | 210
20 | COc1nc(-c2cccc(-c3cccc(-c4cnc(CNC(CO)CF)c(OC)n4)c3Cl)c2Cl)cnc1CNC[C@@H]1CCC(=O)N1 (stereo partly shown) [compound 248] | 180
21 | COCC(NCc1ncc(-c2cccc(-c3cccc(-c4cnc(CNC[C@@H]5CCC(=O)N5)c(OC)n4)c3Cl)c2Cl)nc1OC)C(F)(F)F (stereo partly shown) [compound 249] | 2670
22 | COc1nc(-c2cccc(-c3cccc(-c4cnc(CN5CCN(C=O)CC5)c(OC)n4)c3Cl)c2Cl)cnc1CNC[C@@H]1CCC(=O)N1 [compound 256] | 160
23 | COc1nc(-c2cccc(-c3cccc(-c4cnc(CN[C@H](CO)C(C)C)c(OC)n4)c3Cl)c2Cl)cnc1CNC[C@@H]1CCC(=O)N1 [compound 257] | 426
24 | COc1nc(-c2cccc(-c3cccc(-c4cnc(CN(CCO)CC(F)(F)F)c(OC)n4)c3Cl)c2Cl)cnc1CNC[C@@H]1CCC(=O)N1 [compound 258] | 673
25 | COc1nc(-c2cccc(-c3cccc(-c4cnc(CN5CCN[C@H](C6CC6)C5)c(OC)n4)c3Cl)c2Cl)cnc1CNC[C@@H]1CCC(=O)N1 [compound 259] | 273
26 | COc1nc(-c2cccc(-c3cccc(-c4cnc(CN5CC[C@@H](OC)[C@@H](F)C5)c(OC)n4)c3Cl)c2Cl)cnc1CNC[C@@H]1CCC(=O)N1 [compound 260] | 295
27 | COc1nc(-c2cccc(-c3cccc(-c4cnc(CNC[C@@H]5CC(C)C(=O)N5)c(OC)n4)c3Cl)c2Cl)cnc1CNC[C@@H]1CCC(=O)N1 (stereo partly shown) [compound 262] | 465
28 | COc1nc(-c2cccc(-c3cccc(-c4cnc(CN5C[C@@H](O)C[C@@H](F)C5)c(OC)n4)c3Cl)c2Cl)cnc1CNC[C@@H]1CCC(=O)N1 [compound 263] | 379
29 | COc1nc(-c2cccc(-c3cccc(-c4cnc(CN5C[C@H](O)C[C@@H](F)C5)c(OC)n4)c3Cl)c2Cl)cnc1CNC[C@@H]1CCC(=O)N1 [compound 264] | 407
30 | COc1nc(-c2cccc(-c3cccc(-c4cnc(CN5C[C@H](O)[C@@H](F)C5)c(OC)n4)c3Cl)c2Cl)cnc1CNC[C@@H]1CCC(=O)N1 [compound 265] | 225
31 | COc1nc(-c2cccc(-c3cccc(-c4cnc(CN5C[C@H](O)[C@@H](C#N)C5)c(OC)n4)c3Cl)c2Cl)cnc1CNC[C@@H]1CCC(=O)N1 [compound 266] | 243
32 | COc1nc(-c2cccc(-c3cccc(-c4cnc(CNC5CCC(F)(F)C5)c(OC)n4)c3Cl)c2Cl)cnc1CNC[C@@H]1CCC(=O)N1 (stereo partly shown) [compound 267] | 606
33 | COc1nc(-c2cccc(-c3cccc(-c4cnc(CN[C@H]5C[C@H]5CO)c(OC)n4)c3Cl)c2Cl)cnc1CNC[C@@H]1CCC(=O)N1 [compound 268] | 352
34 | COc1nc(-c2cccc(-c3cccc(-c4cnc(CN5CCN(C6CC6)CC5)c(OC)n4)c3Cl)c2Cl)cnc1CNC[C@@H]1CCC(=O)N1 [compound 269] | 230

Stronger by IC50, values ahead:

Row | IC50 [pM] | SMILES
35 | 110 | COC[C@@H]1CC[C@H]1NCc1ncc(-c2cccc(-c3cccc(-c4cnc(CNC[C@@H]5CCC(=O)N5)c(OC)n4)c3Cl)c2Cl)nc1OC [compound 215]
36 | 140 | COc1nc(-c2cccc(-c3cccc(-c4cnc(CNC5CC(CC(N)=O)C5)c(OC)n4)c3Cl)c2Cl)cnc1CNC[C@@H]1CCC(=O)N1 (stereo partly shown) [compound 217]
37 | 140 | COc1nc(-c2cccc(-c3cccc(-c4cnc(CNCC5(S(C)(=O)=O)CC5)c(OC)n4)c3Cl)c2Cl)cnc1CNC[C@@H]1CCC(=O)N1 [compound 218]
38 | 136 | COc1nc(-c2cccc(-c3cccc(-c4cnc(CNC[C@@H]5CCC(=O)N5)c(OC)n4)c3Cl)c2Cl)cnc1CNCC1CCN(C(C)=O)C1 (stereo partly shown) [compound 227]
39 | 64 | COc1nc(-c2cccc(-c3cccc(-c4cnc(CN5CC[C@@H](O)[C@H](C)C5)c(OC)n4)c3Cl)c2Cl)cnc1CNC[C@@H]1CCC(=O)N1 [compound 231]
40 | 88 | COc1nc(-c2cccc(-c3cccc(-c4cnc(CN5CC6(CCOC6)C5)c(OC)n4)c3Cl)c2Cl)cnc1CNC[C@@H]1CCC(=O)N1 [compound 234]
41 | 106 | COc1nc(-c2cccc(-c3cccc(-c4cnc(CNC[C@@H]5CCC(=O)N5)c(OC)n4)c3Cl)c2Cl)cnc1CNCCC1CNC(=O)C1 (stereo partly shown) [compound 235]
42 | 64 | COc1nc(-c2cccc(-c3cccc(-c4cnc(CNC[C@@H]5CCC(=O)N5)c(OC)n4)c3Cl)c2Cl)cnc1CNCCC1CCCO1 (stereo partly shown) [compound 236]
43 | 64 | COc1nc(-c2cccc(-c3cccc(-c4cnc(CNC(CCO)C5CC5)c(OC)n4)c3Cl)c2Cl)cnc1CNC[C@@H]1CCC(=O)N1 (stereo partly shown) [compound 237]
44 | 90 | COc1nc(-c2cccc(-c3cccc(-c4cnc(CN5CC(O)(CO)C5)c(OC)n4)c3Cl)c2Cl)cnc1CN1CC(O)(CO)C1 [compound 240]
45 | 140 | COc1nc(-c2cccc(-c3cccc(-c4cnc(CNC[C@H]5C[C@H](O)C5)c(OC)n4)c3Cl)c2Cl)cnc1CNC[C@H]1C[C@H](O)C1 [compound 242]
46 | 110 | COc1nc(-c2cccc(-c3cccc(-c4cnc(CNC[C@H]5C[C@@H](O)C5)c(OC)n4)c3Cl)c2Cl)cnc1CNC[C@H]1C[C@@H](O)C1 [compound 243]
47 | 80 | COc1nc(-c2cccc(-c3cccc(-c4cnc(CNC[C@@H]5CC(C)(C)C(=O)N5)c(OC)n4)c3Cl)c2Cl)cnc1CNC[C@@H]1CC(C)(C)C(=O)N1 [compound 244]
48 | 130 | COc1nc(-c2cccc(-c3cccc(-c4cnc(CNC(CO)CCF)c(OC)n4)c3Cl)c2Cl)cnc1CNC[C@@H]1CCC(=O)N1 (stereo partly shown) [compound 247]
49 | 120 | COc1nc(-c2cccc(-c3cccc(-c4cnc(CN5CCN[C@@H](C)C5)c(OC)n4)c3Cl)c2Cl)cnc1CNC[C@@H]1CCC(=O)N1 [compound 250]
50 | 70 | COc1nc(-c2cccc(-c3cccc(-c4cnc(CN5CCN[C@H](C)C5)c(OC)n4)c3Cl)c2Cl)cnc1CNC[C@@H]1CCC(=O)N1 [compound 251]
51 | 60 | COc1nc(-c2cccc(-c3cccc(-c4cnc(CN5CC(F)(CO)C5)c(OC)n4)c3Cl)c2Cl)cnc1CNC[C@@H]1CCC(=O)N1 [compound 252]
52 | 90 | COc1nc(-c2cccc(-c3cccc(-c4cnc(CN5CC(O)(CO)C5)c(OC)n4)c3Cl)c2Cl)cnc1CNC[C@@H]1CCC(=O)N1 [compound 253]
53 | 110 | COc1nc(-c2cccc(-c3cccc(-c4cnc(CNC[C@@H]5CCC(=O)N5)c(OC)n4)c3Cl)c2Cl)cnc1CNC[C@H]1CCN1 [compound 254]
54 | 80 | COc1nc(-c2cccc(-c3cccc(-c4cnc(CNC[C@@H]5CCC(=O)N5)c(OC)n4)c3Cl)c2Cl)cnc1CNCC1CNC1 [compound 255]
55 | 128 | COc1nc(-c2cccc(-c3cccc(-c4cnc(CN5CCCC(F)(CO)C5)c(OC)n4)c3Cl)c2Cl)cnc1CNC[C@@H]1CCC(=O)N1 (stereo partly shown) [compound 261]
